Measured values: patent EP1914236A1 (Ortho-McNeil Pharmaceutical, Inc., priority 2002, dated 2003)

Columns and labels:
[1] = target: T1, human B2 bradykinin receptors (Homo sapiens, UniProt P30411); test: Bradykinin B2 (BK2) Receptor Binding Assay; conditions: membranes of CHO-K1 cells transfected with human B2 bradykinin receptors; ~0.25 nM [3H]NPC17731; 60 min at 25°C
T1 construct: purchased Receptor Biology, Inc. (Baltimore, MD); host or cells: CHO-K1 cells transfected with the human B2 receptor (membranes)
T1 sequence (P30411 1-391): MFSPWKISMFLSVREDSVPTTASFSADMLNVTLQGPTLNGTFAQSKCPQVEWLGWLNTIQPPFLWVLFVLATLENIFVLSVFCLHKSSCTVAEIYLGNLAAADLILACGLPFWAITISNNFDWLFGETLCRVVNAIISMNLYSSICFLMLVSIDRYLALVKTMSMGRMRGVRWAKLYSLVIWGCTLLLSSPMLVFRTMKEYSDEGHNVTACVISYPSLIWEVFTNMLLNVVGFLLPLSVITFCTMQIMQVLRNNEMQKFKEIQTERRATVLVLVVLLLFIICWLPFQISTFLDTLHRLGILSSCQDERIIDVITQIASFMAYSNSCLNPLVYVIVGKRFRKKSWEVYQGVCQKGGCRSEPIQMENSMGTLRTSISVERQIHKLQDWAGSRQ
Experimental: Cell membranes of CHO-K1 cells transfected with human B2 bradykinin receptors (CH)-hB2) were purchased from Receptor Biology, Inc. (Baltimore,MD).
Samples were harvested on a Brandel Cell Harvester on to Wallac filtermat B sheets (96 sample format), and washed three times with 2 mL cold HEPES-buffer (10 mM, pH 7.5), and dried in a microwave oven.
The data were used to calculate either the % inhibition compared to control binding (when only a single concentration of test compound was evaluated) or a Ki value (when a range of concentrations were tested). Background was subtracted from mean cpm values and % inhibition was calculated as: [(total dpm-test compound dpm)/(total dpm-nonspecific dpm)]x100. Kd and Ki values were calculated using GraphPad PRISM data analysis program.

CHO-hB2 cell membranes = target: T2, CHO-hB2 cell membranes (Homo sapiens, UniProt P30411); test: [35S]GTPγS Binding Assay in CHO-hB2 Cell Membranes; assay type: biochemical; conditions: for Functional Activity (% Basal): number in parentheses, bradykinin-stimulated [35S]GTPγS binding, test concentration not given; for Functional Activity: word part of the cell, effect on bradykinin-stimulated [35S]GTPγS binding
T2 construct: purchased Receptor Biology, Inc. (Baltimore, MD); host or cells: CHO-hB2 cells (membranes)
T2 sequence (P30411 1-391): T1 sequence (P30411 1-391)
Experimental: CHO-hB2 cell membranes were purchased from Receptor Biology, Inc. (Baltimore,MD). 10 mg/mL of membrane protein was suspended in 10 mM TRIS-HC pH 7.2, 2 mM EDTA, 10% sucrose.
Membranes were added into 15 mL ice cold binding assay buffer. The assay buffer contained 50 mM HEPES, pH 7.6, 5 mM MgCl2, 100 mM NaCl, 1 mM DTT and 1 mM EDTA. The membrane suspension was homogenized twice with a Polytron and centrifuged at 3000 rpm for 10 min. The supernatant was then centrifuged at 18,000 rpm for 20 min. The pellet was saved in a tube and resuspended.
The pellet membranes (40 µg/mL) were preincubated with SPA (scintillation proximity assay) beads (20 mg/mL) at 25C° for 45 min in the assay buffer. The SPA beads (5 mg/mL) coupled with membranes (10 µg/mL) were then incubated with 0.5 nM [^35S]GTPγS in the same HEPES buffer containing 50 µM GDP in total volume of 200 µL. Bradykinin was used to stimulate [^35S]GTPγS binding. Varying concentrations of drugs were incubated with bradykinin to inhibit bradykinin-stimulated [^35S]GTPγS binding. The basal binding was tested in the absence of bradykinin and no specific binding was tested in the present 10 µM unlabeled GTPγS. The radioactivity was quantified on a Packard Top Count, and calculated. % of Basal = (stimulated binding-non specific binding)/(basal binding-non specific binding) × 100. [formula]

| SMILES | Ki [1] [nM] | Functional Activity (% Basal) (CHO-hB2 cell membranes) | Functional Activity (CHO-hB2 cell membranes) |
| --- | --- | --- | --- |
| Cc1ccc2cccc(OCc3c(Cl)ccc(N(C)C(=O)Cc4cc(C(=O)c5ccc(C#N)cc5)n(C)c4)c3Cl)c2n1 [Compound 4, 2-[5-(4-Cyano-benzoyl)-1-methyl-1H-pyrrol-3-yl]-N-[2,4-dichloro-3-(2-methyl-quinolin-8-yloxymethyl)-phenyl]-N-methyl-acetamide] | 1350 | 24 | Antagonist |
| COc1ccc(C(=O)c2ccc(CC(=O)N(C)c3ccc(Cl)c(COc4cccc5ccc(C)nc45)c3Cl)[nH]2)cc1 [Compound 5] | 71 | 61 | Antagonist |
| CCCn1c(CC(=O)N(C)c2ccc(Cl)c(COc3cccc4ccc(C)nc34)c2Cl)ccc1C(=O)c1ccc(C#N)cc1 [Compound 9] | 27 | 1 | No effect |
| CCCCn1c(CC(=O)N(C)c2ccc(Cl)c(COc3cccc4ccc(C)nc34)c2Cl)ccc1C(=O)c1ccc(C#N)cc1 [Compound 10] | 29 | 1 | No effect |
| Cc1ccc2cccc(OCc3c(Cl)ccc(N(C)C(=O)Cc4ccc(C(=O)c5ccc(C#N)cc5)n4CC4CC4)c3Cl)c2n1 [Compound 11, 2-[5-(4-Cyano-benzoyl)-1-cyclopropylmethyl-1H-pyrrol-2-yl]-N-[2,4-dichloro-3-(2-methyl-quinolin-8-yloxymethyl)-phenyl]-N-methyl-acetamide] | 48 | 1 | No effect |
| Cc1ccc2cccc(OCc3c(Cl)ccc(N(C)C(=O)Cc4ccc(C(=O)c5ccc(C#N)cc5)n4CC(C)C)c3Cl)c2n1 [Compound 12] | 54 | 1 | No effect |
| Cc1ccc2cccc(OCc3c(Cl)ccc(N(C)C(=O)Cc4ccc(C(=O)c5ccc(C#N)cc5)n4CCC(C)C)c3Cl)c2n1 [Compound 13] | 44 | 1 | No effect |
| Cc1ccc2cccc(OCc3c(Cl)ccc(NC(=O)Cc4ccc(C(=O)c5ccc(C#N)cc5)n4C)c3Cl)c2n1 [Compound 15] | – | – | Weak antagonist |
| CCN(C(=O)Cc1ccc(C(=O)c2ccc(C#N)cc2)n1C)c1ccc(Cl)c(COc2cccc3ccc(C)nc23)c1Cl [Compound 18] | 55 | 1 | No effect |
| Cc1ccc2cccc(OCc3c(Cl)ccc(N(C)C(=O)Cc4ccc(C(=O)CN5CCC(c6ccccc6)CC5)n4C)c3Cl)c2n1 [Compound 58, N-[2,4-Dichloro-3-(2-methyl-quinolin-8-yloxymethyl)-phenyl]-N-methyl-2-{1-methyl-5-[2-(4-phenyl-piperidin-1-yl)-acetyl]-1H-pyrrol-2-yl}-acetamide] | 293 | 1 | No effect |
| Cc1ccc2cccc(OCc3c(Cl)ccc(N(C)C(=O)Cc4ccc(C(=O)CN5CCC(Cc6ccccc6)CC5)n4C)c3Cl)c2n1 [Compound 59] | 291 | 1 | No effect |
| Cc1ccc2cccc(OCc3c(Cl)ccc(N(C)C(=O)Cc4ccc(C(=O)c5cccs5)n4C)c3Cl)c2n1 [Compound 61] | 393 | 12 | Weak antagonist |
| Cc1ccc2cccc(OCc3c(Cl)ccc(N(C)C(=O)Cc4ccc(C(=O)c5ccc(C(=O)N(C)C)cc5)n4C)c3Cl)c2n1 [Compound 62, 4-[5-({[2,4-Dichloro-3-(2-methyl-quinolin-8-yloxymethyl)-phenyl]-methylcarbamoyl}-methyl)-1-methyl-1H-pyrrole-2-carbonyl]-N,N-dimethyl-benzamide] | 204 | 59 | Antagonist |
| Cc1ccc2cccc(OCc3c(C)ccc(N(C)C(=O)Cc4ccc(-c5ccccc5)n4C)c3C)c2n1 [Compound 97, N-[2,4-Dimethyl-3-(2-methyl-quinolin-8-yloxymethyl)-phenyl]-N-methyl-2-(1-methyl-5-phenyl-1 H-pyrrol-2-yl)-acetamide] | 7190 | – | – |
| COc1ccc(C(=O)c2ccc(CCC(=O)N(C)c3ccc(C)c(COc4cccc5ccc(C)nc45)c3C)s2)cc1 [Compound 106] | 375 | – | – |

The remaining lines, values ahead:

| Ki [1] [nM] | Functional Activity (% Basal) (CHO-hB2 cell membranes) | Functional Activity (CHO-hB2 cell membranes) | SMILES |
| --- | --- | --- | --- |
| 3610 | – | – | Cc1ccc(-c2ccc(CC(=O)N(C)c3ccc(C)c(COc4cccc5ccc(C)nc45)c3C)n2C)cc1 [Compound 98, N-[2,4-Dimethyl-3-(2-methyl-quinolin-8-yloxymethyl)-phenyl]-N-methyl-2-(1-methyl-5-p-tolyl-1H-pyrrol-2-yl)-acetamide] |
| 47.4 | – | – | Cc1nc2c(OCc3c(Cl)ccc(N(C)C(=O)Cc4ccc(C(=O)c5ccc(C#N)cc5)n4C)c3Cl)cccn2c1Br [Compound 102, N-[3-(3-Bromo-2-methyl-imidazo[1,2-a]pyridin-8-yloxymethyl)-2,4-dichlorophenyl]-2-[5-(4-cyano-benzoyl)-1-methyl-1H-pyrrol-2-yl]-N-methyl-acetamide] |
| 68.5 | – | – | Cc1nc2c(OCc3c(Cl)ccc(N(C)C(=O)Cc4ccc(C(=O)c5ccc(S(C)(=O)=O)cc5)n4C)c3Cl)cccn2c1Br [Compound 103, N-[3-(3-Bromo-2-methyl-imidazo[1,2-a]pyridin-8-yloxymethyl)-2,4-dichlorophenyl]-2-[5-(4-methanesulfonyl-benzoyl)-1-methyl-1H-pyrrol-2-yl]-N-methyl-acetamide] |
| 554 | – | – | Cc1ccc2cccc(OCc3c(C)ccc(N(C)C(=O)CCc4ccc(C(=O)c5ccccc5)s4)c3C)c2n1 [Compound 104] |
| 882 | – | – | Cc1ccc2cccc(OCc3c(Cl)ccc(N(C)C(=O)CCc4ccc(C(=O)c5ccccc5)s4)c3Cl)c2n1 [Compound 105] |
| 321 | – | – | COc1ccc(C(=O)c2ccc(CCC(=O)N(C)c3ccc(Cl)c(COc4cccc5ccc(C)nc45)c3Cl)s2)cc1 [Compound 107] |
| 53 | – | – | Cc1ccc2cccc(OCc3c(Cl)ccc(N(C)C(=O)Cc4ccc(C(=O)c5ccccc5)s4)c3Cl)c2n1 [Compound 109, 2-(5-Benzoyl-thiophen-2-yl)-N-[2,4-dichloro-3-(2-methyl-quinolin-8-yloxymethyl)-phenyl]-N-methyl-acetamide] |
| 6.4 | – | – | Cc1ccc2cccc(OCc3c(Cl)ccc(N(C)C(=O)Cc4cc(C(=O)c5ccc(C#N)cc5)cs4)c3Cl)c2n1 [Compound 115, 2-[4-(4-Cyano-benzoyl)-thiophen-2-yl]-N-[2,4-dichloro-3-(2-methyl-quinolin-8-yloxymethyl)-phenyl]-N-methyl-acetamide] |
| 17600 | – | – | Cc1ccc2cccc(OCc3cccc(N(C)C(=O)Cc4ccc(C(=O)c5cccc(C#N)c5)n4C)c3Cl)c2n1 [Compound 116, N-[2-Chloro-3-(2-methyl-quinolin-8-yloxymethyl)-phenyl]-2-[5-(3-cyanobenzoyl)-1-methyl-1 H-pyrrol-2-yl]-N-methyl-acetamide] |
| 428 | – | – | Cc1ccc2cccc(OCc3c(Cl)ccc(N(C)C(=O)Cc4ccc(C(=O)c5ccc(N(C)C)cc5)n4C)c3Cl)c2n1 [Compound 118, N-[2,4-Dichloro-3-(2-methyl-quinolin-8-yloxymethyl)-phenyl]-2-[5-(4-dimethylamino-benzoyl)-1-methyl-1H-pyrrol-2-yl]-N-methyl-acetamide] |
| 14000 | – | – | COc1ccc(C(=O)c2ccc(CC(=O)Nc3ccc(Cl)c(COc4cccc5ccc(C)nc45)c3Cl)n2C)cc1 [Compound 119] |
| 1560 | – | – | COc1ccc(C(=O)c2c(C)cc(CC(=O)Nc3ccc(Cl)c(COc4cccc5ccc(C)nc45)c3Cl)n2C)cc1 [Compound 120] |
| 19800 | – | – | Cc1ccc2cccc(OCc3c(Cl)ccc(NC(=O)Cc4cc(C)c(C(=O)c5ccc(N)cc5)n4C)c3Cl)c2n1 [Compound 121] |
